Assay results from patent US20260078120A1, “SUBSTITUTED PYRIDOPYRIMIDINONES” (MIRATI THERAPEUTICS, INC., priority 2022, published 2026).
Like-named read-outs stand apart in the source and are kept apart here.

Experiments:
Assay type in all cases: cell-based
[1] = tested on: T47D (PI3Kα H1047R mutant) cells; test: Inhibition of pAKT formation, alphaLISA SureFire Ultra AKT 1/2/3 (pS473), T47D cells; settings: T47D (PI3Kα H1047R mutant) cells, inhibition of pAKT (pS473) formation, approximately one hour or 24 hours treatment, read-out: T47D pAKT (H1047R mutant) IC50
Procedure: The ability of a compound of Formula (I) to inhibit the formation of pAKT was measured using alphaLISA Surefire Ultra AKT 1/2/3 (pS473) Assay Kit (#ALSU-PAKT-B50K) was obtained from Perkin Elmer (Waltham, MA).
To prepare assay plates for pAKT alphaLISA assays, cells were trypsinized, resuspended in fresh media, and viable cells were counted utilizing trypan blue exclusion. Prior to seeding, cells were washed with PBS and resuspended in HBSS (Gibco, #14025092). T47D (12,000/w), SKBR3(12,000/w), or MKN1(24,000/w) cells were seeded at 12 μl per well in a solid white flat bottom 384 cell culture plate (Perkin Elmer #6007680).
Immediately after seeding, cells were dosed using an Echo Liquid Handler (Beckman Coulter) with compounds at a […] starting concentration and serially diluted (1:4) for a total of 10 concentrations. […] Cells were incubated with the compounds (solubilized in DMSO) for approximately one hour or 24 hours at 37° C. After one hour (or 24 hours) of treatment, cells were lysed with 3 μl of the 5× lysis buffer (provided and incubated at room temperature for 15 min on a microtiter plate shaker). Once cells were sufficiently lysed, 7.5 μl of the acceptor bead mix (made using the manufacturers recommended dilutions) was added to each well and left on the microtiter plate shaker for 1 min prior to incubating plates at room temperature for one hour, in the absence of light. After one hour of incubation with the acceptor bead mix, 7.5 μl of the donor bead mix (made using the manufacturers recommended dilutions) was added to each well and left on the microtiter plate shaker for 1 min prior to incubating plates at room temperature overnight in the absence of light. Plates were then imaged the following day using a CLARIOstar microplate reader (BMG Labtech, Germany).
Percent of control values were calculated by subtracting the average signal from the positive control (alpelisib) treated wells from all treated wells (including DMSO control wells) and then divided by the average signal from the vehicle DMSO treated control wells. Percent of vehicle control values were plotted as log (inhibitor) vs. response-Variable slope (four parameters) for curve fitting and IC50 values were determined using XLfit.
Key: N.D. =not determined
Inhibition of pAKT in T47D (PI3Kα H1047R mutant) cells by Exemplary Compounds of Formula (I)

[2] = tested on: T47D (PI3Kα H1047R mutant) cells; test: CellTiter-Glo 2.0 luminescent cell viability assay, 72 hours, T47D cells; settings: T47D (PI3Kα H1047R mutant) cells, CellTiter-Glo, approximately 72 hours, read-out: T47D (H1047R mutant) Viability IC50
Summary of the method: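 Viability was measured by CellTiter-Glo 2.0 luminescence after approximately 72 h of compound exposure at 37° C. Plating was 1000 cells per well the day before dosing, with ten 1:4 dilutions from a 10 µM top concentration. Values as percent of vehicle were fitted by variable-slope log(inhibitor) regression to give IC50.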

[3] = tested on: SKBR3 (PI3Kα wild type) cells; test: CellTiter-Glo 2.0 luminescent cell viability assay, 72 hours, SKBR3 cells; settings: SKBR3 (PI3Kα wild type) cells, CellTiter-Glo, approximately 72 hours, read-out: SKBR3 (WT) Viability IC50
Summary of the method: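 Viability measured via CTG luminescence following roughly 72 hours of compound exposure at 37° C. Dosing used a 10 um starting concentration diluted 1:4 over 10 points; percent-of-vehicle data fitted with a variable-slope four-parameter model for IC50.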

IC50 ([1]; Homo sapiens, T47D)	IC50 [2]	IC50 [3]	IC50 ([2]; Homo sapiens, T47D, 72 h)	IC50 ([3]; Homo sapiens, SK-BR-3, 72 h)	IC50 [1]	Structure (SMILES)
0.00121 µM	0.0293 µM	7.45 µM	–	–	–	CCc1cc([C@@H](C)Nc2ccccc2C(=O)O)c2nc(N3Cc4ccccc4C3)c(C#N)c(=O)n2c1 [Example 10-10, (R)-2-((1-(3-cyano-7-ethyl-2-(isoindolin-2-yl)-4-oxo-4H-pyrido[1,2-a]pyrimidin-9-yl)ethyl)amino)benzoic acid]
0.00385 µM	–	–	0.048 µM	5.54 µM	–	Cc1cc([C@@H](C)Nc2ccccc2C(=O)O)c2nc(N3CCN(c4ccc(C#N)cc4)C[C@H]3C)c(C)c(=O)n2c1 [Example 10-22, 2-(((R)-1-(2-((R)-4-(4-cyanophenyl)-2-methylpiperazin-1-yl)-3,7-dimethyl-4-oxo-4H-pyrido[1,2-a]pyrimidin-9-yl)ethyl)amino)benzoic acid]
0.00549 µM	–	–	0.0486 µM	> 10 µM	–	Cc1cc([C@@H](C)Nc2ccccc2C(=O)O)c2nc(N3CCN(c4ccc(C#N)cc4)[C@H](C)C3)c(C)c(=O)n2c1 [Example 10-24, 2-(((R)-1-(2-((R)-4-(4-cyanophenyl)-3-methylpiperazin-1-yl)-3,7-dimethyl-4-oxo-4H-pyrido[1,2-a]pyrimidin-9-yl)ethyl)amino)benzoic acid]
0.001 µM	–	–	0.0328 µM	5.89 µM	–	Cc1cc([C@@H](C)Nc2ccccc2C(=O)O)c2nc(N3CCN(c4cn(C)nc4C(F)(F)F)CC3)c(C)c(=O)n2c1 [Example 10-13, (R)-2-((1-(3,7-dimethyl-2-(4-(1-methyl-3-(trifluoromethyl)-1H-pyrazol-4-yl)piperazin-1-yl)-4-oxo-4H-pyrido[1,2-a]pyrimidin-9-yl)ethyl)amino)benzoic acid]
0.00105 µM	–	–	0.11 µM	> 10 µM	–	Cc1cc([C@@H](C)Nc2ccccc2C(=O)O)c2nc(N3CCC(F)(F)C3)c(C#N)c(=O)n2c1 [Example 10-75, (R)-2-((1-(3-cyano-2-(3,3-difluoropyrrolidin-1-yl)-7-methyl-4-oxo-4H-pyrido[1,2-a]pyrimidin-9-yl)ethyl)amino)benzoic acid]
–	0.0615 µM	9.87 µM	–	–	0.00309 µM	Cc1cc([C@@H](C)Nc2ccccc2C(=O)O)c2nc(N3CCN(c4ccc(C#N)cc4)C[C@H]3C)c(C)c(=O)n2c1 [Example 10-42, 2-(((R)-1-(2-((R)-4-(4-cyanophenyl)-2-methylpiperazin-1-yl)-3,7-dimethyl-4-oxo-4H-pyrido[1,2-a]pyrimidin-9-yl)ethyl)amino)benzoic acid]
0.00234 µM	–	–	0.0331 µM	8.79 µM	–	Cc1cc([C@@H](C)Nc2ccc(Cl)nc2C(=O)O)c2nc(N3Cc4ccccc4C3)c(C#N)c(=O)n2c1 [Example 10-14, (R)-6-chloro-3-((1-(3-cyano-2-(isoindolin-2-yl)-7-methyl-4-oxo-4H-pyrido[1,2-a]pyrimidin-9-yl)ethyl)amino)picolinic acid]
0.00718 µM	–	–	0.0602 µM	> 10 µM	–	Cc1cc([C@@H](C)Nc2ccccc2C(=O)O)c2nc(N3CCN(c4ccc(C#N)cc4)[C@@H](C)C3)c(C#N)c(=O)n2c1 [Example 10-41, 2-(((R)-1-(3-cyano-2-((S)-4-(4-cyanophenyl)-3-methylpiperazin-1-yl)-7-methyl-4-oxo-4H-pyrido[1,2-a]pyrimidin-9-yl)ethyl)amino)benzoic acid]
0.0584 µM	–	–	0.0988 µM	> 10 µM	–	Cc1cc([C@@H](C)Nc2ccc(C)nc2C(=O)O)c2nc(NC3CCC3)c(C#N)c(=O)n2c1 [Example 10-115, (R)-3-((1-(3-cyano-2-(cyclobutylamino)-7-methyl-4-oxo-4H-pyrido[1,2-a]pyrimidin-9-yl)ethyl)amino)-6-methylpicolinic acid]
0.00211 µM	–	–	0.0664 µM	> 10 µM	–	Cc1cc([C@@H](C)Nc2ccccc2C(=O)O)c2nc(N(C)C3CC(F)(F)C3)c(C#N)c(=O)n2c1 [Example 10-49, (R)-2-((1-(3-cyano-2-((3,3-difluorocyclobutyl)(methyl)amino)-7-methyl-4-oxo-4H-pyrido[1,2-a]pyrimidin-9-yl)ethyl)amino)benzoic acid]
0.00672 µM	–	–	0.0925 µM	> 10 µM	–	Cc1cc([C@@H](C)Nc2ccccc2C(=O)O)c2nc(N3CCC4(CC4)C(F)(F)C3)c(C)c(=O)n2c1 [Example 10-107, (R)-2-((1-(2-(4,4-difluoro-6-azaspiro[2.5]octan-6-yl)-3,R7-dimethyl-4-oxo-4H-pyrido[1,2-a]pyrimidin-9-yl)ethyl)amino)benzoic acid]
0.00395 µM	–	–	0.0732 µM	> 10 µM	–	COC1(C)CCN(c2nc3c([C@@H](C)Nc4ccccc4C(=O)O)cc(C)cn3c(=O)c2C)CC1 [Example 10-56, (R)-2-((1-(2-(4-methoxy-4-methylpiperidin-1-yl)-3,7-dimethyl-4-oxo-4H-pyrido[1,2-a]pyrimidin-9-yl)ethyl)amino)benzoic acid]
0.0017 µM	–	–	0.109 µM	> 10 µM	–	Cc1cc([C@@H](C)Nc2ccccc2C(=O)O)c2nc(N3CC4CC3C4)c(C#N)c(=O)n2c1 [Example 10-76, (R)-2-((1-(2-(2-azabicyclo[2.1.1]hexan-2-yl)-3-cyano-7-methyl-4-oxo-4H-pyrido[1,2-a]pyrimidin-9-yl)ethyl)amino)benzoic acid]
0.00264 µM	–	–	0.109 µM	> 10 µM	–	Cc1cc([C@@H](C)Nc2ccccc2C(=O)O)c2nc(N3CCC(F)(F)[C@H](C)C3)c(C)c(=O)n2c1 [Example 10-126, 2-(((R)-1-(2-((R)-4,4-difluoro-3-methylpiperidin-1-yl)-3,7-dimethyl-4-oxo-4H-pyrido[1,2-a]pyrimidin-9-yl)ethyl)amino)benzoic acid]
0.00382 µM	–	–	0.0862 µM	> 10 µM	–	Cc1cc([C@@H](C)Nc2ccccc2C(=O)O)c2nc(N3CC4C(C3)C4(F)F)c(C#N)c(=O)n2c1 (stereo partly drawn) [Example 10-100, 2-(((1R)-1-(3-cyano-2-(6,6-difluoro-3-azabicyclo[3.1.0]hexan-3-yl)-7-methyl-4-oxo-4H-pyrido[1,2-a]pyrimidin-9-yl)ethyl)amino)benzoic acid]
0.00119 µM	–	–	0.0744 µM	> 10 µM	–	Cc1cc([C@@H](C)Nc2ccccc2C(=O)O)c2nc(N3CCC(F)(F)[C@@H](C)C3)c(C)c(=O)n2c1 [Example 10-127, 2-(((R)-1-(2-((S)-4,4-difluoro-3-methylpiperidin-1-yl)-3,7-dimethyl-4-oxo-4H-pyrido[1,2-a]pyrimidin-9-yl)ethyl)amino)benzoic acid]

Structure (SMILES)	IC50 ([1]; Homo sapiens, T47D)	IC50 [2]	IC50 [3]	IC50 ([2]; Homo sapiens, T47D, 72 h)	IC50 ([3]; Homo sapiens, SK-BR-3, 72 h)	IC50 [1]
Cc1cc([C@@H](C)Nc2ccccc2C(=O)O)c2nc(N3CC4CC(C4)C3)c(C)c(=O)n2c1 [Example 10-124, (R)-2-((1-(2-(3-azabicyclo[3.1.1]heptan-3-yl)-3,7-dimethyl-4-oxo-4H-pyrido[1,2-a]pyrimidin-9-yl)ethyl)amino)benzoic acid]	0.00159 µM	–	–	0.105 µM	> 10 µM	–
Cc1cc([C@@H](C)Nc2ccccc2C(=O)O)c2nc(N3CC4CC(C3)C4(F)F)c(C)c(=O)n2c1 [Example 10-102, 2-(((1R)-1-(2-(6,6-difluoro-3-azabicyclo[3.1.1]heptan-3-yl)-3,7-dimethyl-4-oxo-4H-pyrido[1,2-a]pyrimidin-9-yl)ethyl)amino)benzoic acid]	0.0037 µM	–	–	0.087 µM	> 10 µM	–
